Measurements: patent US20160375031A1, “ALPHA-OXOACYL AMINO-CAPROLACTAM DERIVATIVE” (Seikagaku Corporation, priority 2013, published 2016)
Where “and” joins values, the source holds several entries; their conditions need not be identical. Identical values can stand only once. Like-named read-outs stand apart in the source and are kept apart here.

Experiments:
[1] = tested on: male mice fed with low-calcium diet; settings: values shown in JP 2000-204071 A (Patent Literature 1); cited from earlier work
Cathepsin K [2] = target: T1, Cathepsin K (Oryctolagus cuniculus, UniProt P43236); test: Measurement of cathepsin K inhibitory activity (fluorescent substrate Z-Gly-Pro-Arg-MCA); settings: for CYP/CatK: ratio of IC50 for CYP3A4 inhibitory activity (MBI) to IC50 for cathepsin K inhibitory activity
T1 sequence (P43236 115-329): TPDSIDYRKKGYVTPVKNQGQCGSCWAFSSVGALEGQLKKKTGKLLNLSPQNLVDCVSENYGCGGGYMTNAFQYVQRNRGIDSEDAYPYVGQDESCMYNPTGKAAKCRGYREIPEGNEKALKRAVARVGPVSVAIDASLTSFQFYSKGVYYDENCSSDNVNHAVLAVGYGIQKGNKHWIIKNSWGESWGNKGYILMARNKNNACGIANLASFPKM
Protocol: (§1) Specifically, the decomposition of 20 μM Z-Gly-Pro-Arg-MCA by cathepsin K was measured in 100 mM potassium sodium phosphate, 1 mM EDTA, 8 mM Cysteine, pH 6.0. The reaction was performed at 37° C. for 30 minutes and then quenched by the addition of 2×10^−5 M of calpeptin. After the reaction was quenched, the intensity of fluorescence was measured at an excitation wavelength of 355 nm and a measurement wavelength of 460 nm.

CYP3A4 [3] = target: T2, CYP3A4 (Homo sapiens, UniProt P08684)
Protocol: (§2) A reaction mixture was prepared by mixing the compound of the present invention with midazolam as a typical substrate for CYP3A4 (see Food and Drug Administration (FDA) Guidance for Industry Drug Interaction Studies—Study Design, Data Analysis, Implications for Dosing, and Labeling Recommendations. FDA web site [online], www.fda.gov/downloads/drugs/guidancecomplianceregulatoryinformation/guidances/ucm292362.pdf), coenzyme NADPH-generating system, human hepatic microsomes, and a phosphate buffer. The reaction mixture was incubated at 37° C. for 10 minutes.
(§3) The coenzyme NADPH-generating system solution was prepared by mixing the materials shown in Table 1: the 13 mmol/L β-NADP^+ solution, the 33 mmol/L G-6-P solution, the solution of 10 U/mL G6PDH (Y) (manufactured by Oriental Yeast Co., Ltd.), and the 33 mmol/L MgCl2 solution in a ratio of 1:1:0.4:1 (v:v:v:v).
(§4) After the incubation, the reaction was quenched by the addition of an acetonitrile solution to the reaction mixture. The amount of 1′-hydroxymidazolam produced (the metabolite produced from midazolam by CYP3A4) was measured in the quenched sample with a high-performance liquid chromatography tandem mass spectrometer (LC-MS/MS). Each IC50 value for DI (direct inhibition) was determined from the amount of the produced 1′-hydroxymidazolam and the final concentration of the compound of the present invention or the comparative compound in the reaction mixture.
(§5) MBI (mechanism based inhibition) was evaluated as follows. After the reaction mixture not containing midazolam (but containing the compound of the present invention or the comparative compound, the coenzyme NADPH-generating system, the human hepatic microsomes, and the phosphate buffer) was pre-incubated at 37° C. for 30 minutes, midazolam was added to the reaction mixture. The reaction mixture was then incubated at 37° C. for 10 minutes. Subsequently, the reaction was quenched by the addition of an acetonitrile solution to the reaction mixture. The amount of 1′-hydroxymidazolam produced was measured in the quenched sample with an LC-MS/MS. As in the case of DI, each IC50 value for MBI was determined from the amount of the produced 1′-hydroxymidazolam and the final concentration of the compound of the present invention or the comparative compound in the reaction mixture.

[4] = tested on: male mice fed with low-calcium diet; test: Measurement of bone resorption inhibitory activity (decrease in serum calcium in low-calcium diet mice); type: in vivo; settings: low-calcium diet 7 days, 100 mg/kg oral, 4 hours after administration, vs control group
Protocol: The measurement was performed by the same method as described in JP 2000-204071 A (Patent Literature 1). Specifically, male mice (23 to 25 g weight, 8 mice per group) were fed with low-calcium diet (0.1% calcium diet) for 7 days. […] The rate (%) of decrease in serum calcium was determined by comparison with the control group.
It should be noted that the data of the rate (%) of decrease in serum calcium as to comparative compounds 1 to 15 are the values shown in JP 2000-204071 A (Patent Literature 1).

Cathepsin K [5] = target: T1, Cathepsin K
Protocol: as §1

CYP3A4 [6] = target: T2, CYP3A4; test: biochemical
Protocol: as §2, §3, §4, §5

[7] = read-out: CatK Inhibitory IC50, 20 μM Z-Gly-Pro-Arg-MCA, pH 6.0, 37° C., 30 minutes
[8] = read-out: CYP3A4 Inhibitory IC50 DI, DI (direct inhibition), human hepatic microsomes, midazolam, 37° C. 10 minutes
[9] = read-out: CYP3A4 Inhibitory IC50 MBI, MBI (mechanism based inhibition), 30 minutes pre-incubation with NADPH-generating system before midazolam

T2 sequence (P08684 whole entry): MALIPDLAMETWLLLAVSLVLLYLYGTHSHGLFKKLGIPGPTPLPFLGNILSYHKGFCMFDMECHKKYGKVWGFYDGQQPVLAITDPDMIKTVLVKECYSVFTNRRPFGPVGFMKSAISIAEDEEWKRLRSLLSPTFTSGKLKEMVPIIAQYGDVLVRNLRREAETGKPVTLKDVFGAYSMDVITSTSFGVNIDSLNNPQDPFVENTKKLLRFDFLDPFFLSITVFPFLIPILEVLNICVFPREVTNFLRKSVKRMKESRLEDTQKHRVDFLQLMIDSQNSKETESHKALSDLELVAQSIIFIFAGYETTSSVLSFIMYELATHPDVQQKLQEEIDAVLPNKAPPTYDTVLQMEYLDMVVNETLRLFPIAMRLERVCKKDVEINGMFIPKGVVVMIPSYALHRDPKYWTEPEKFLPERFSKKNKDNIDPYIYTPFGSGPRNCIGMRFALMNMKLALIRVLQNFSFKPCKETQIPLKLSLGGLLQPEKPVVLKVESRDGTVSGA

CYP/CatK (Cathepsin K [5])	IC50 (CYP3A4 [6])	IC50 (Cathepsin K [2])	Molecule	Rate of Decrease in Serum Ca [1]	CYP/CatK (Cathepsin K [2])	IC50 (Cathepsin K [2]; [7])	IC50 (CYP3A4 [3]; [8])	IC50 (CYP3A4 [3]; [9])	Rate of Decrease in Serum Ca [4]
			[1-[[[(1S)-3-[[(3S)-hexahydro-2-oxo-1H-azepin-3-yl]amino]-1-(1-methylethyl)-2,3-dioxopropyl]amino]carbonyl]cyclohexyl]carbamic acid 1-(methoxycarbonyl)-4-piperidinyl ester [Compound 2]	4.71%	122	13 nM	9.31 µM	1.53 µM	
141739	> 100 µM and 80 µM	0.56 nM	CC(C)[C@H](NC(=O)C1(NC(=O)OC2CCOCC2)CCCCC1)C(=O)C(=O)N[C@H]1CCCCNC1=O [Compound 1, [1-[[[(1S)-3-[[(3S)-hexahydro-2-oxo-1H-azepin-3-yl]amino]-1-(1-methylethyl)-2,3-dioxopropyl]amino]carbonyl]cyclohexyl]carbamic acid tetrahydro-2H-pyran-4-yl ester]						6.2%
44231	55.6 µM and 23 µM	0.52 nM	COC(=O)N1CCC(OC(=O)NC2(C(=O)N[C@H](C(=O)C(=O)N[C@H]3CCCCNC3=O)C(C)C)CCCCC2)CC1 [Compound 2, [1-[[[(1S)-3-[[(3S)-hexahydro-2-oxo-1H-azepin-3-yl]amino]-1-(1-methylethyl)-2,3-dioxopropyl]amino]carbonyl]cyclohexyl]carbamic acid 1-(methoxycarbonyl)-4-piperidinyl ester]						5.6%
			[1-[[[(1S)-3-[[(3S)-hexahydro-2-oxo-1H-azepin-3-yl]amino]-1-(1-methylethyl)-2,3-dioxopropyl]amino]carbonyl]cyclohexyl]carbamic acid tetrahydro-2H-pyran-4-yl ester [Compound 1]	5.39%	207	16 nM	11.7 µM	3.36 µM	
